This is an account of results in ChEMBL document CHEMBL1165975, “Synthesis, molecular modeling and biological evaluation of dithiocarbamates as novel antitubulin agents” (Bioorg Med Chem, 2010).

Assay [1] is described as follows: Inhibition of bovine brain tubulin polymerization after 20 mins. Details: species or system Bos taurus.
Assay [2] has as its system MCF7. Put plainly: Cell cycle arrest in human MCF7 cells assessed as accumulation at G1 phase at 25 nM after 24 hrs by flow cytometry. Type of assay: functional. (In flow cytometry, cells or beads pass a laser one at a time.)
In assay [3] the test system is MCF7. Put plainly: Cell cycle arrest in human MCF7 cells assessed as accumulation at S phase at 25 nM after 24 hrs by flow cytometry. Type of assay: functional.
The subject of assay [4] is MCF7. Put plainly: Cell cycle arrest in human MCF7 cells assessed as accumulation at G2/M phase at 25 nM after 24 hrs by flow cytometry. Type of assay: functional.
The subject of assay [5] is MCF7. Put plainly: Cytotoxicity against human MCF7 cells after 48 hrs by MTT assay. It is filed as functional, cell-based. The settings on record: MCF7, 48 h. On the technique in general: Tetrazolium assays rely on reduction of a dye to a coloured formazan, in cell work by metabolically active cells.
For assay [6], the system named is MCF7. Put plainly: Cell cycle arrest in human MCF7 cells assessed as accumulation at G1 phase at 250 nM after 24 hrs by flow cytometry. Type of assay: functional.
The test system of assay [7] is MCF7. Put plainly: Cell cycle arrest in human MCF7 cells assessed as accumulation at S phase at 250 nM after 24 hrs by flow cytometry. It is filed as functional.
Assay [8] has as its system MCF7. Put plainly: Cell cycle arrest in human MCF7 cells assessed as accumulation at G2/M phase at 250 nM after 24 hrs by flow cytometry. It is filed as functional.

Take `COc1cc2c(c(OC)c1OC)-c1ccc(OC)c(=O)cc1[C@@H](NC(C)=O)CC2` [COLCHICINE]: the IC50 – broadly, the concentration that inhibits the measured activity by half – in assay [1] was 3.2 µM; with MCF7 [5], 0.017 µM. Moreover, the Activity with MCF7 [2] is 24.31%; in the assay with MCF7 [3] it was 15.96%; in the assay on MCF7 [4], 32.28%.

Take `CCN(CC)C(=S)SC(CC(=O)c1ccc(OC)cc1)c1ccccc1Cl` (configuration not stated): the figures for the IC50 (in assay [1]; in the assay on MCF7 [5]) were 10 µM and 0.07 µM, respectively.

For `CCN(CC)C(=S)SC(CC(=O)c1ccc(OC)cc1)c1ccc(C)cc1` (configuration not stated), the figures for the IC50 (in assay [1]; in the assay with MCF7 [5]) were 180 µM and 17 µM, respectively.

Turning to `CCN(CC)C(=S)SC(CC(=O)c1ccc(OC)cc1)c1ccc(Cl)cc1` (configuration not stated), the IC50 stood at 140 µM in assay [1] and 16 µM with MCF7 [5].

`CCN(CC)C(=S)SC(CC(=O)c1ccc(Br)cc1)c1ccccc1` (configuration not stated): the results for the IC50 (in assay [1]; in the assay with MCF7 [5]) were 65 µM and 5 µM, respectively.

As for `CCN(CC)C(=S)SC(CC(=O)c1ccccc1)c1ccc(C)cc1` (configuration not stated), the results for the IC50 (in assay [1]; in the assay on MCF7 [5]) were 220 µM and 20 µM, respectively.

As for `CCN(CC)C(=S)SC(CC(=O)c1ccccc1)c1ccccc1OC` (configuration not stated), the IC50 in assay [1] amounted to 150 µM; in the assay on MCF7 [5] it was 16 µM.

On to `CCN(CC)C(=S)SC(CC(=O)c1ccc(OC)cc1)c1ccc(OC)cc1` (configuration not stated), for which the IC50 in assay [1] turned out to be 84 µM; with MCF7 [5], 0.8 µM.

For `CCN(CC)C(=S)SC(CC(=O)c1ccccc1)c1cccc([N+](=O)[O-])c1` (configuration not stated), the results for the IC50 (in assay [1]; in the assay with MCF7 [5]) were 90 µM and 9 µM, respectively.

For `CCN(CC)C(=S)SC(CC(=O)c1ccc(Cl)c(Cl)c1)c1ccccc1` (configuration not stated), the IC50 in assay [1] was 60 µM; in the assay with MCF7 [5], 4.5 µM.

Consider `CCN(CC)C(=S)SC(CC(=O)c1ccc(OC)cc1)c1ccccc1` (configuration not stated), for which the IC50 is 62 µM in assay [1] and 4.5 µM in the assay on MCF7 [5].

With `CCN(CC)C(=S)SC(CC(=O)c1ccccc1)c1ccccc1` (configuration not stated), the IC50 came to 130 µM in assay [1] and 17 µM in the assay on MCF7 [5].

For the molecule `CCN(CC)C(=S)SC(CC(C)=O)c1ccccc1` (configuration not stated), the figures for the 50% inhibitory concentration (IC50) (in assay [1]; with MCF7 [5]) were 250 µM and 23 µM, respectively.

Turning to `CCN(CC)C(=S)SC(CC(=O)c1ccc(Br)cc1)c1ccc(F)cc1` (configuration not stated), the results for the IC50 (in assay [1]; in the assay with MCF7 [5]) were 18 µM and 1 µM, respectively.

As to `CCN(CC)C(=S)SC(CC(=O)c1ccc(Br)cc1)c1ccc(OC)cc1` (configuration not stated), the IC50 in assay [1] is 52 µM; with MCF7 [5], 5 µM.

For the molecule `COc1ccc(/C=C\c2cc(OC)c(OC)c(OC)c2)cc1O` [COMBRETASTATIN A4], the IC50 in assay [1] worked out at 2.2 µM.

As to `CCN(CC)C(=S)SC(CC(=O)c1ccccc1)c1ccccc1Cl` (configuration not stated), the IC50 in assay [1] worked out at 52 µM; in the assay on MCF7 [5], 4.5 µM.

In the case of `CCN(CC)C(=S)SC(CC(=O)c1ccccc1)c1ccc(F)cc1` (configuration not stated), the figures for the IC50 (in assay [1]; in the assay on MCF7 [5]) were 80 µM and 0.7 µM, respectively.

For the molecule `CCN(CC)C(=S)SC(CC(=O)c1ccc(Cl)cc1)c1ccccc1` (configuration not stated), the IC50 in assay [1] was 6.8 µM; in the assay on MCF7 [5], 0.04 µM. In addition, the Activity with MCF7 [2] was found to be 50.86%; in the assay with MCF7 [3], 16.28%; with MCF7 [4] it was 19.99%; in the assay with MCF7 [6], 12.86%; in the assay with MCF7 [7], 12.22%; with MCF7 [8], 39.54%.

For the molecule `CCN(CC)C(=S)SC(CC(=O)c1ccccc1)c1ccc(Br)cc1` (configuration not stated), the IC50 in assay [1] stood at 12 µM; in the assay with MCF7 [5], 0.08 µM.

For the molecule `CCN(CC)C(=S)SC(CC(=O)c1ccccc1)c1ccc(OC)cc1` (configuration not stated), the IC50 was 45 µM in assay [1] and 4.6 µM with MCF7 [5].

For the molecule `CCN(CC)C(=S)SC(CC(=O)c1ccccc1)c1ccc(Cl)cc1` (configuration not stated), the IC50 in assay [1] was 15 µM; with MCF7 [5], 0.12 µM.
